According to patent publication US20230210834A1, “RNA METHYLTRANSFERASE INHIBITOR, SCREENING METHOD THEREFOR, ANTI-CANCER AGENT EFFICACY ASSESSMENT MARKER, AND KIT FOR EFFECTIVELY PREDICTING FTSJ1 INHIBITOR” (National University Corporation Okayama University, priority 2019, published 2023):

Tests used:
[1] = tested on: polyglutamine luciferase reporter; experiment: Screening: polyglutamine luciferase reporter assay in NUGC3 cells (luminescence % of DMSO); assay type: cell-based, human; conditions: NUGC3 cells, luminescence relative to DMSO, concentration not given
Method: (§1) Human gastric cancer cell line NUGC3 was cultured in a DMEM medium (high glucose with L-glutamine and phenol red, produced by FUJIFILM Wako Pure Chemical Corporation) containing 10% fetal bovine serum (produced by Thermo Fisher Scientific Inc.) and penicillin-streptomycin (produced by FUJIFILM Wako Pure Chemical Corporation) (this medium is simply referred to below as “DMEM+10% FBS+1×P/S”). Then, the NUGC3 cells were seeded in a 60-mm culture dish (produced by BioLite) so that the cells were 80% confluent after 24 hours. Subsequently, 5 μg of a reporter plasmid and 15 μL of a lipofection reagent (transIT-LT1, produced by Mirus Bio LLC) were mixed in 500 μL of Opti-MEM medium (produced by Thermo Fisher Scientific, Inc.) to form a complex, which was added to the medium in which the NUGC3 cells were cultured in the 60-mm culture dish. For use as the reporter plasmid, 5 μg of a polyglutamine luciferase reporter was introduced (in the polyglutamine luciferase reporter, a Renilla luciferase expressed in the IRES was located as an internal standard downstream of the sequence of a firefly luciferase sequence to which polyglutamine was added). Alternatively, a YAP/TAZ activity reporter was used by simultaneously introducing 3 μg of 8×GTIIC plasmid and 2 μg of a Renilla luciferase reporter as an internal standard. After another 24 hours, the cells were exfoliated with a 0.05 w/v % trypsin-0.53 mmol/l EDTA-4Na solution (produced by FUJIFILM Wako Pure Chemical Corporation), and then seeded in a 96-well plate (produced by BioLite) so that the cells were 80% confluent after 24 hours. Twenty-four hours after seeding in the 96-well plate, the medium in each well was replaced with 100 μL of a medium (DMEM+10% FBS+an antibiotic) containing 10 μM or 5 μM of a compound for evaluation. After another 24 hours, the medium containing the compound was removed, and the 96-well plate was transferred on ice. Each well was washed with 100 μL of phosphate buffer (PBS, produced by FUJIFILM Wako Pure Chemical Corporation). Thereafter, 20 μL of Passive Lysis Buffer (1×) contained in a Dual-Luciferase Reporter Assay System (produced by Promega Corporation) was added. The plate was then gently shaken for 15 minutes at room temperature to lyse the cells. After confirming that the cells were lysed, 10 μL of the lysate was transferred from each well to each corresponding well of a white 96-well plate (produced by Greiner Bio-one). To each well of the white 96-well plate was added 100 μL of a mixture of a Luciferase Assay Buffer II and Luciferase Assay Substrate contained in the Dual-Luciferase Reporter Assay System (produced by Promega Corporation), whereby the luminescence of the firefly luciferase was induced, and the luminescence intensity was detected with a microluminometer (produced by Berthold Japan K.K.). Subsequently, 100 μL of a mixture of Stop & Glo Buffer and Stop & Glo Substrate contained in the Dual-Luciferase Reporter Assay System (produced by Promega Corporation) was added, whereby the luminescence of firefly luciferase was quenched while the luminescence of Renilla luciferase was induced, and the luminescence intensity was detected with a microluminometer (produced by Berthold Japan K.K.) in a manner similar to the above. The ratio of the luminescence intensity of the firefly luciferase and the luminescence intensity of the Renilla luciferase was calculated, and the luminescence intensity (%) of the wells containing each compound was calculated with the luminescence intensity of the well containing DMSO (dimethyl sulfoxide, used as a solvent for the compound liquids) taken as 100%. […] Unless otherwise specified, the measured values in the table represent the results obtained by evaluation with the addition of 10 μM of each compound for evaluation.

YAP/TAZ = experiment: Screening: YAP/TAZ activity reporter (8xGTIIC plasmid) assay in NUGC3 cells (luminescence % of DMSO); assay type: cell-based, human; conditions: NUGC3 cells, luminescence relative to DMSO, concentration not given
Method: as §1

[2] = polyglutamine luciferase reporter
[3] = YAP/TAZ activity reporter (8×GTIIC)

| Structure (SMILES) | Polyglutamine [1, 2] [%] | 8×GTIIC (YAP/TAZ; [3]) [%] | Polyglutamine [1] [%] | 8×GTIIC (YAP/TAZ) [%] |
| --- | --- | --- | --- | --- |
| Cc1cc(C)cc(S(=O)(=O)CC2CCC(C3CC3)CC2)c1 (stereo not shown) [SA032] | 80.29 | 88.64 | – | – |
| CC1(C)CC(CS(=O)(=O)c2ccc(C(C)(C)C)cc2)CC(C)(C)S1 [PVZF2045] | 65.16 | 66.26 | – | – |
| CCCCCCS(=O)(=O)c1ccccc1 [PVZF2047] | 48.95 | 63.56 | – | – |
| CCc1ccccc1C1CC(c2ccc(C)cc2)=NC1S(=O)(=O)c1ccccc1C (stereo not shown) [PVZF0065] | – | – | 48.96 | 67.6 |
| CC(=O)C1C=C(c2ccccc2)CC1c1ccc2ccccc2c1 (stereo not shown) [PZ179] | 66.51 | 95.65 | – | – |
| O=S(=O)(CC1CCC(S(=O)(=O)C2CCCCC2)CC1)c1ccccc1 (stereo not shown) [SA071] | 61.72 | 138.5 | – | – |
| O=S(=O)(CCc1ccccc1)c1ccccc1 [PVZF2050] | 49.43 | 39.57 | – | – |
| Cc1ccc(C2=NC(S(=O)(=O)c3ccc(C)cc3)C(c3ccccc3C)C2)cc1 (stereo not shown) [PVZF0094] | – | – | 69.05 | 97.79 |
| Cc1cc(C(C)C)cc(S(=O)(=O)CC2CCC(S(C)(=O)=O)CC2)c1C (stereo not shown) [SA078] | 87.12 | 95.87 | – | – |
| CC(C)(C)c1ccc(S(=O)(=O)CC2CCCC2)cc1 [PVZF2019] | 31.45 | 36.82 | – | – |
| CCc1ccc(C2=NC(S(=O)(=O)c3ccccc3)C(c3cccc(CC)c3CC)C2)c(CC)c1 (stereo not shown) [PVZF0054] | – | – | 56.4 | 49.48 |
| Cc1ccc(S(=O)(=O)CC2CCC(C3CC3)CC2)c(C)c1 (stereo not shown) [SA050] | 60.42 | 92.26 | – | – |
| Cc1ccc(C)c(S(=O)(=O)CC2CCC(S(C)(=O)=O)CC2)c1 (stereo not shown) [SA064] | 54.39 | 64.48 | – | – |
| CC(C)(C)c1ccc(S(=O)(=O)CCC2CCCCC2)cc1 [PVZF2024] | 63.4 | 55.45 | – | – |
| CCc1ccc(OC)cc1C1CC(c2ccc(C)cc2)=NC1S(=O)(=O)c1ccc(C)cc1 (stereo not shown) [PVZF0043] | – | – | 35.33 | 36.69 |
| O=S(=O)(CCCC1CCCCC1)c1ccc2ccccc2c1 [PVZF2017] | 66.66 | 58.91 | – | – |
| CCc1ccc(C2=NC(S(=O)(=O)c3ccccc3)C(c3cccc(CC)c3CC)C2)cc1CC (stereo not shown) [PVZF0052] | – | – | 71.62 | 54.38 |
| CCc1cccc(C2CC(c3cccc(C)c3)=NC2S(=O)(=O)c2ccccc2)c1CC (stereo not shown) [PVZF0049] | – | – | 67.85 | 91.32 |
| Cc1ccc(S(=O)(=O)CC2CC(C)(C)CC(C)(C)C2)cc1C(F)(F)F [SA001] | 83.34 | 74.98 | – | – |
| CC1(C)CC(CS(=O)(=O)c2ccc3ccccc3c2)CC(C)(C)C1 [PVZF2018] | 61.19 | 73.29 | – | – |
| CC(=O)c1ccccc1S(=O)(=O)CC1CCC(S(C)(=O)=O)CC1 (stereo not shown) [SA074] | 92.5 | 88.44 | – | – |
| CCc1cc(CC)cc(C2=NC(S(=O)(=O)c3ccc(C)cc3)C(c3cccc(CC)c3CC)C2)c1 (stereo not shown) [PVZF0055] | – | – | 46.42 | 45.63 |
| CCc1ccc(C2CC(c3ccc(C)cc3)=NC2S(C)(=O)=O)cc1 (stereo not shown) [PVZF0083] | – | – | 57.89 | 104.5 |
| CCCc1cc(S(=O)(=O)CC2CC(C)(C)CC(C)(C)C2)ccc1C [SA011] | 60.35 | 67.54 | – | – |
| CCc1cccc(C2CC(c3ccc(C)cc3)=NC2S(=O)(=O)c2ccc(C)cc2)c1CC (stereo not shown) [PVZF0069] | – | – | 46.34 | 49.99 |
| CC(C)c1cc(C(C)C)c(S(=O)(=O)CCc2ccccc2)c(C(C)C)c1 [PVZF2006] | 41.3 | 58.43 | – | – |
